What was measured:
Escherichia coli = assay: treatment of human subject with urinary tract infection, enteric coated oral tablets; format: in vivo; conditions: two enteric coated tablets (350 mg each) orally every 8 hours for 4 days
From the text: An enteric coated antimicrobial composition for oral administration, according to this invention, is made comprising the following core tablet:
The components are admixed into a bulk mixture. Compressed tablets are formed, using tabletting methods known in the art. The tablet is then coated with a suspension of methacrylic acid/methacrylic acid ester polymer in isopropanol/acetone. A human subject, having a urinary tract infection with Escherichia coli present, is orally administered two of the tablets, every 8 hours, for 4 days.

[1] = reported side effect; cited from earlier work
Streptococcus pneumoniae = conditions: human, lower respiratory tract infection with Streptococcus pneumoniae; 30 mg/mL suspension, approx. 2.0 mL intramuscular twice daily for approx. 14 days; after 4 days
Procedure: An antimicrobial composition for parenteral administration, according to this invention, is made comprising:
The above ingredients are mixed, forming a suspension. Approximately 2.0 mL of the suspension is systemically administered, via intramuscular injection, to a human subject suffering from a lower respiratory tract infection, with Streptococcus pneumoniae present. This dosage is repeated twice daily, for approximately 14 days.

## 7-[7-amino-8R-methyl-5-azaspiro[2.5]-octanyl]-1-cyclopropyl-1,4-dihydro-6-fluoro-8-methoxy-4-oxo-3-quinolinecarboxylic acid hydrochloride [Example 5]
Escherichia coli
  symptoms of the disease / eradication of the pathogen: Symptoms of the disease then subside

## COc1c(N2CCNC(C)C2)c(F)cc2c(=O)c(C(=O)O)cn(C3CC3)c12 (racemic) [gatifloxacin, (±)-1-cyclopropyl-6-fluoro-1,4-dihydro-8-methoxy-7-(3-methyl-1-piperazinyl)-4-oxo-3-quinoline carboxylic acid]
[1]
  clastogenicity: exhibit clastogenicity

## CC[C@@H]1[C@H](N)CN(c2nc3c(cc2F)c(=O)c(C(=O)O)cn3C2CC2)C[C@@H]1C.Cl [Example 12, 7-[3S-amino-4S-ethyl-5R-methyl-piperidinyl]-1-Cyclopropyl-1,4-dihydro-6-fluoro-4-oxo-1,8-naphthyridine-3-carboxylic acid hydrochloride]
Streptococcus pneumoniae
  symptoms of the disease / eradication of the pathogen: symptoms of the disease subside
